Source: article PMC9960274, “Peptidic Inhibitors and a Fluorescent Probe for the Selective Inhibition and Labelling of Factor XIIIa Transglutaminase” (Molecules, 2023)
Entries after “also recorded” stand apart in the source; their conditions may differ. Read-outs that look alike come from different tables or passages of the source. Values belong to the compound of their own block, whether it stands above or below them. Starred links: 1 amine or outer side, 2 acyl side, 3 side chain; linkers in the order of their positions; H or OH if unused. Non-standard residues stand in square brackets, D forms with d. Residues, ends and D or L forms follow the SMILES beside them. *: point of attachment. RhodamineB = CCN(CC)c1ccc2c(-c3ccccc3C(=O)*)c3ccc(=[N+](CC)CC)cc-3oc2c1; X1 = COC(=O)/C=C/CC[C@H](N[*:1])C(=O)[*:2]; X2 = COC(=O)C=CCCC[C@H](N[*:1])C(=O)[*:2]; X3 = COC(=O)C=CC[C@H](N[*:1])C(=O)[*:2]; Nle = CCCC[C@H](N)C(=O)O; Orn = NCCC[C@H](N)C(=O)O; Dab = NCC[C@H](N)C(=O)O; Acryloyl = C=CC(=O)*; Ahx = NCCCCCC(=O)O

Biological target: T1, Thrombin-activated human FXIIIa (Homo sapiens, UniProt P00488)
T1 construct: purchased Zedira GmbH T070
T1 sequence (P00488 39-732 limits assumed): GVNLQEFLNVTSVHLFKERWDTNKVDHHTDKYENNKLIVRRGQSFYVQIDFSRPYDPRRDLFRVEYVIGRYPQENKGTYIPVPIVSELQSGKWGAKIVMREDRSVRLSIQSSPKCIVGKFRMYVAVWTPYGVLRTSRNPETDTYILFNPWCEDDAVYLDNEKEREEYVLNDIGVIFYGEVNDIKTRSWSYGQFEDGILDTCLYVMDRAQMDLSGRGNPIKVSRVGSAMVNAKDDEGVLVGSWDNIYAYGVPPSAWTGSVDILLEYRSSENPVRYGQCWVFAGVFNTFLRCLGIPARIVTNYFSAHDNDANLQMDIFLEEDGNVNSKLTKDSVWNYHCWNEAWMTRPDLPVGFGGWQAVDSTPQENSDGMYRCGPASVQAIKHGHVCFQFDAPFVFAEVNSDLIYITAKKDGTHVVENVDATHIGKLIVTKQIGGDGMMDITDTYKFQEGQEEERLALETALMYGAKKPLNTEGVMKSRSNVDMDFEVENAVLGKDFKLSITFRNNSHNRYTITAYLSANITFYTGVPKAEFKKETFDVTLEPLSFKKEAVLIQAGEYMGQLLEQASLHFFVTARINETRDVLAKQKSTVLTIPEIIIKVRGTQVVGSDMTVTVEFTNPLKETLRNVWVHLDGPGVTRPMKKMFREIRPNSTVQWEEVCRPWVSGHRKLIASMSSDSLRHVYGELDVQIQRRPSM
Assay: Fluorescence-quenched A101 isopeptidase assay of FXIIIa inhibition kinetics
Type: biochemical
Conditions: for FXIIIa Inh. Mode: Rev = reversible, Irrev = irreversible, None = no inhibition detected up to 200 μM; for Selectivity: isozyme favoured, FXIIIa vs TG2, FXIIIa as the favoured isozyme; for selectivity for FXIIIa over TG2: from kinact/KI against FXIIIa and TG2
Protocol: All inhibitors synthesised herein were evaluated for inhibition against FXIIIa, using the fluorescence-quenched A101 isopeptidase assay, and against TG2, using the colorimetric AL5 transamidase assay. The assay substrates A101 and AL5 both present labile bonds that are cleaved by the activities of their corresponding transglutaminases, resulting in the release of a fluorophore or chromophore moiety, respectively. The rate of consumption of these assay substrates, indicated by increases in fluorescence or absorbance over time, can be detected for measuring enzyme activity. Assays were run in duplicate at constant reporter substrate concentration with varying concentrations of inhibitor. The type of inhibition was determined through visual inspection of the fluorescence-time curvature; termination of the enzymatic reaction with the substrate at a plateau lower than the no-inhibitor positive control is indicative of irreversible inhibition. On the other hand, convergence to a common plateau indicates reversible inhibition.
Irreversibility was tested further through substrate spike experiments. As shown in Supplementary Materials Figures S1–S3, an additional substrate was added to inhibited and uninhibited enzyme reactions after the completion of the positive control reaction. […] Analysis was carried out through corrected Dixon modelling in the case of reversible kinetics, to obtain Ki values (Figure 5B), and hyperbolic saturation modelling was used to obtain kinact and KI for inhibitors showing irreversibility (Figure 5E). For cases in which the tested inhibitor concentrations were not high enough to reach saturation, a linear regression provided an estimate of the inhibitor’s kinact/KI ratio (Figure 5D). Further details concerning data collection and analysis are provided in the Materials and Methods section.
A previously reported fluorescence-quenched isopeptidase assay using the commercially available substrate A101 (Zedira GmbH, Darmstadt, Germany) was employed for the determination of FXIIIa inhibition kinetics. All assays were performed at 37 °C on 96-well plates, with fluorescence (excitation at 313 nm, emission at 418 nm) measured continuously using a BioTek Synergy 4 plate reader. For each inhibitor, duplicate trials were run in parallel at 4 inhibitor concentrations, along with duplicate positive controls (no inhibitor) and negative controls (no enzyme and no inhibitor). First, 125 μL of aqueous buffer 1 (111 mM Tris, 16.7 mM CaCl2, 333 mM NaCl, pH 7.5) and 18 μL of aqueous buffer 2 (55.6 mM TCEP, 149 mM H-Gly-OMe, pH 7.5) were added to each well, along with 5 μL of A101 stock solution (4000 μM in DMSO). Next, the appropriate amount of the desired inhibitor, dissolved in DMSO, was added, in addition to the amount of distilled water necessary to reach a total volume of 180 μL in each well. Negative controls were diluted to a final volume of 200 μL. Thrombin-activated human FXIIIa (T070, Zedira GmbH, Darmstadt, Germany), stored at −80 °C in 20-μL aliquots (1 mg/mL enzyme) of storage buffer (50.0 mM Tris, 1.00 mM TCEP, 150 mM NaCl, pH 7.5) was warmed to room temperature and diluted to 0.0741 mg/mL through the addition of 250 μL of storage buffer. The diluted enzyme solution was then aliquoted into 10 separate PCR tubes. The assay plate and enzyme tubes were subsequently incubated at 37 °C for 10 min. After the completion of the incubation period, 20 μL of diluted FXIIIa solution was added from each PCR tube to all wells in the plate excluding the negative controls using a multi-channel pipette. This produced a final volume of 200 μL per well, with final reaction conditions of pH 7.5, 74.4 mM Tris, 10.4 mM CaCl2, 223 mM NaCl, 5.10 mM TCEP, 13.4 mM H-Gly-OMe, 100 μM A101, and 7.41 μg/mL (94 nM) FXIIIa. The range of inhibitor concentrations tested spanned from 1 to 200 μM, and the final DMSO concentration in the reaction mixture was kept below 10% v/v. […]

[1] = peptidic series, corrected Dixon plot, α = 13.5, read-out: FXIIIa Ki or KI: Ki of reversible inhibitors
[2] = small molecule series, reversible, Dixon plot, Interference = data afflicted by fluorescence interference
[3] = small molecule series, reversible, Dixon plot, Interference = data afflicted by fluorescence interference, read-out: FXIIIa Ki
[4] = dansyl and sulfonyl-naphthalene compounds, data afflicted by fluorescence interference and set aside, read-out: FXIIIa apparent Ki (interference)

FXIIIa Inh. Mode: Rev
Selectivity: FXIIIa
Ki [1]: 193 ± 20 µM
Compound: C=CC(=O)NCC[C@H](NC(=O)[C@@H](CC(=O)O)NC(C)=O)C(=O)N[C@@H](CCCC)C(=O)N[C@@H](CCCC)C(=O)N[C@@H](CC(C)C)C(=O)N1CCC[C@H]1C(=O)N[C@@H](Cc1c[nH]c2ccccc12)C(=O)N1CCC[C@H]1C(=O)O [Compound 12, Ac-D-Asp-Dab(Acrylamide)-Nle-Nle-Leu-Pro-Trp-Pro-OH] (Ac-[dD][Dab](Acryloyl)[Nle][Nle]LPWP-OH)

FXIIIa Inh. Mode: Rev
Selectivity: FXIIIa
Ki [1]: 135 ± 16 µM
Compound: C=CC(=O)NCCC[C@H](NC(=O)[C@@H](CC(=O)O)NC(C)=O)C(=O)N[C@@H](CCCC)C(=O)N[C@@H](CCCC)C(=O)N[C@@H](CC(C)C)C(=O)N1CCC[C@H]1C(=O)N[C@@H](Cc1c[nH]c2ccccc12)C(=O)N1CCC[C@H]1C(=O)O [Compound 13] (Ac-[dD][Orn](Acryloyl)[Nle][Nle]LPWP-OH)

FXIIIa Inh. Mode: Rev
Selectivity: FXIIIa
Ki [1]: 125 ± 20 µM
Compound: C=CC(=O)NCCCC[C@H](NC(=O)[C@@H](CC(=O)O)NC(C)=O)C(=O)N[C@@H](CCCC)C(=O)N[C@@H](CCCC)C(=O)N[C@@H](CC(C)C)C(=O)N1CCC[C@H]1C(=O)N[C@@H](Cc1c[nH]c2ccccc12)C(=O)N1CCC[C@H]1C(=O)O [Compound 14] (Ac-[dD]K(Acryloyl)[Nle][Nle]LPWP-OH)

FXIIIa Inh. Mode: weak reversible inhibition and Rev
Selectivity: FXIIIa
Ki [1]: 53 ± 12 µM
Compound: CCCC[C@H](NC(=O)[C@H](CC=CC(=O)OC)NC(=O)[C@@H](CC(=O)O)NC(C)=O)C(=O)N[C@@H](CCCC)C(=O)N[C@@H](CC(C)C)C(=O)N1CCC[C@H]1C(=O)N[C@@H](Cc1c[nH]c2ccccc12)C(=O)N1CCC[C@H]1C(=O)O [Compound 45] (Ac-[dD][X3][Nle][Nle]LPWP-OH)

Selectivity: Irrev TG2
Ki [1]: 0.0941 ± 0.0105 µM
Compound: CCCC[C@H](NC(=O)[C@H](CCCC=CC(=O)OC)NC(=O)[C@@H](CC(=O)O)NC(C)=O)C(=O)N[C@@H](CCCC)C(=O)N[C@@H](CC(C)C)C(=O)N1CCC[C@H]1C(=O)N[C@@H](Cc1c[nH]c2ccccc12)C(=O)N1CCC[C@H]1C(=O)O [Compound 47] (Ac-[dD][X2][Nle][Nle]LPWP-OH)
FXIIIa Inh. Mode: reversible and highly potent reversible FXIIIa inhibition and Rev

FXIIIa Ki [2]: Interference *
Compound: C=CC(=O)NCC(NC(=O)CC(=O)O)C(=O)N1CCN(S(=O)(=O)c2cccc3c(N(C)C)cccc23)CC1 (centres unmarked) [Compound 71]

Ki [3]: 249 ± 69.3 µM
Compound: C=CC(=O)NCC(NC(=O)CC(=O)O)C(=O)N1CCN(C(=O)c2cccc3ccccc23)CC1 (centres unmarked) [Compound 72]

FXIIIa Ki [2]: Interference *
Compound: C=CC(=O)NCC(NC(=O)C1(C(=O)OC)CC1)C(=O)N1CCN(S(=O)(=O)c2cccc3c(N(C)C)cccc23)CC1 (centres unmarked) [Compound 73]

FXIIIa Ki [2]: Interference *
Compound: C=CC(=O)NCC(NC(=O)C1(C(=O)O)CC1)C(=O)N1CCN(S(=O)(=O)c2cccc3c(N(C)C)cccc23)CC1 [Compound 74, Acid-Cyclopropyl-L-Dap(Acryl)-Piperazine-Dansyl]

FXIIIa Ki [2]: Interference *
Compound: C=CC(=O)NCC(NC(=O)CCC(=O)O)C(=O)N1CCN(S(=O)(=O)c2cccc3c(N(C)C)cccc23)CC1 [Compound 75, Succinyl-L-Dap(Acryl)-Piperazine-Dansyl]

Ki [4]: 64.3 ± 5.1 µM
FXIIIa Ki [2]: Interference *
Compound: C=CC(=O)NCC(NC(=O)CCC(=O)O)C(=O)N1CCN(S(=O)(=O)c2cccc3ccccc23)CC1 [Compound 76, Succinyl-L-Dap(Acryl)-Piperazine-Sulfonyl-Naphthalene]

Ki [3]: 69 ± 4.1 µM
Compound: C=CC(=O)NCC(NC(=O)CCC(=O)O)C(=O)N1CCN(C(=O)c2cccc3ccccc23)CC1 [Compound 77, Succinyl-L-Dap(Acryl)-Piperazine-Naphthoyl]

Ki [4]: 26.7 ± 1.3 µM
FXIIIa Ki [2]: Interference *
Compound: C=CC(=O)NCC(NS(=O)(=O)CC(=O)O)C(=O)N1CCN(S(=O)(=O)c2cccc3c(N(C)C)cccc23)CC1 (centres unmarked) [Compound 79]

Ki [3]: 108 ± 19.1 µM
Compound: C=CC(=O)NC(CNC(=O)CCC(=O)O)C(=O)N1CCN(C(=O)c2cccc3ccccc23)CC1 (centres unmarked) [Compound 84]

Ki [3]: 131 µM
Compound: COC(=O)C=CCCC(NC(=O)CCC(=O)O)C(=O)N1CCN(C(=O)c2cccc3ccccc23)CC1 (centres unmarked) [Compound 87]

Ki [3]: 265 ± 46.8 µM
Compound: COC(=O)C=CCCC(NC(=O)c1ccccc1C(=O)O)C(=O)N1CCN(C(=O)c2cccc3ccccc23)CC1 (centres unmarked) [Compound 88]

selectivity for FXIIIa over TG2: around 6.5 fold
selectivity for FXIIIa over TG2 (listed as KM93): 6.5 fold
kinact/KI (irreversible inhibitors, saturation fit or linear regression): 2120 M⁻¹ s⁻¹
Compound: CCCC[C@H](NC(=O)[C@H](CC/C=C/C(=O)OC)NC(=O)[C@@H](CC(=O)O)NC(=O)CCCCCNC(=O)[C@@H]1CCCN1C(=O)c1ccccc1-c1c2ccc(=[N+](CC)CC)cc-2oc2cc(N(CC)CC)ccc12)C(=O)N[C@@H](CCCC)C(=O)N[C@@H](CC(C)C)C(=O)N1CCC[C@H]1C(=O)N[C@@H](Cc1c[nH]c2ccccc12)C(=O)N1CCC[C@H]1C(=O)O [Compound 93] (RhodamineB-P[Ahx][dD][X1][Nle][Nle]LPWP-OH)

Compound: Ac-D-Asp-Dap(Acrylamide)-Nle-Nle-Leu-Pro-Trp-Pro-OH [Compound 11]
FXIIIa Inh. Mode: complete loss of inhibition; also recorded: no inhibition; also recorded: None *
